Measurements as given in PubChem BioAssay (NCI).
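Tested at 5 concentrations; 48 h exposure; 96-well plates; endpoints linearly interpolated, else capped at highest concentration. Definition used: TGI = concentration required for complete inhibition of growth.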 Where a SMILES comes first, the peptide text is derived from it. [ ]: non-standard residue; d: D form. Phe(4-NO2) = N[CH](Cc1ccc([N+](=O)[O-])cc1)C(=O)O

Tests used:
Assay in all cases: NCI tumour cell line growth inhibition, 48 h
786-0 renal = tested on: 786-0 renal
COLO 205 colon = tested on: COLO 205 colon
HCC-2998 colon = tested on: HCC-2998 colon
HCT-116 colon = tested on: HCT-116 colon
HCT-15 colon = tested on: HCT-15 colon
KM12 colon = tested on: KM12 colon
M14 melanoma = tested on: M14 melanoma
MDA-MB-435 = tested on: MDA-MB-435
MOLT-4 leukemia = tested on: MOLT-4 leukemia
OVCAR-5 ovarian = tested on: OVCAR-5 ovarian
RPMI-8226 leukemia = tested on: RPMI-8226 leukemia
SF-268 CNS = tested on: SF-268 CNS
SF-539 CNS = tested on: SF-539 CNS
SK-OV-3 ovarian = tested on: SK-OV-3 ovarian
SN12C renal = tested on: SN12C renal
SNB-75 CNS = tested on: SNB-75 CNS
SW-620 colon = tested on: SW-620 colon
T-47D breast = tested on: T-47D breast
UO-31 renal = tested on: UO-31 renal
SR leukemia = tested on: SR leukemia

SMILES | TGI (786-0 renal) [µM] | TGI (COLO 205 colon) [µM] | TGI (HCC-2998 colon) [µM] | TGI (HCT-116 colon) [µM] | TGI (HCT-15 colon) [µM] | TGI (KM12 colon) [µM] | TGI (M14 melanoma) [µM] | TGI (MDA-MB-435) [µM] | TGI (MOLT-4 leukemia) [µM] | TGI (OVCAR-5 ovarian) [µM] | TGI (RPMI-8226 leukemia) [µM] | TGI (SF-268 CNS) [µM] | TGI (SF-539 CNS) [µM] | TGI (SK-OV-3 ovarian) [µM] | TGI (SN12C renal) [µM] | TGI (SNB-75 CNS) [µM] | TGI (SW-620 colon) [µM] | TGI (T-47D breast) [µM] | TGI (UO-31 renal) [µM] | TGI (SR leukemia) [µM]
COc1ccc2[nH]cc(C(=O)C(=O)NC34CC5CC(CC(C5)C3)C4)c2c1 | 47.5 | > 100 | > 100 | > 100 | > 90.3 | > 100 | > 100 | > 100 | 16.6 | > 100 | 19.8 | > 100 | > 81.1 | > 100 | 51.9 | > 73 | > 100 | > 100 | > 100 | 
C=C(C)[C@@]1(O)CCCC[C@@H]1CC(Sc1ccccc1)Sc1ccccc1 | 39.9 | 31 | 32.4 | 30.2 | 33.3 | 35.1 | 39.3 | 33 | 32.5 | 30.7 | 33.9 | 31.1 |  | 39.6 | 32.4 | 30 |  | 29 | 31.5 | 34.8
O=[N+]([O-])c1ccc(Oc2c(Cl)cc(S(=O)(=O)/N=C(\NO)Nc3ccc(Cl)cc3)cc2Cl)c(Cl)c1 | 27.8 | 35.5 | 31.2 | 26.2 | 32.1 | 28.4 | 30.1 | 31.3 | 25.6 | 35.5 | 34.3 | 29.6 | 36.7 |  | 27.4 |  | 80.3 | 67.7 | 26.5 | 32.6
Cc1c2c(OCC(O)CN3CCN(c4ccccc4)CC3)nn(C)c(=O)c2c(C)n1-c1ccccc1 (configuration not stated) | 42.3 | 39.6 | 78.3 | 31.3 | 43.5 | > 100 | 30.7 | 91.8 | 88.9 | 62 | 52.5 | 73.5 | 33.6 | > 100 | 36.5 | 75.5 | 98.8 | 71.8 | 43.2 | 
COc1ccc(OC)c(C2CCc3c(cnc4nc(N)nc(N)c34)C2)c1 (configuration not stated) | 18.3 | 47.3 | 44.6 | 14.2 | 28.4 | 26.4 | 17.3 | 17.1 | 22 | 22.2 |  | 18.9 | 89.1 | 31.2 | 22 |  | 37.2 | 39.8 |  | 20.4
CNC(=O)NCCN1CC2CCC(CC2)C1 | > 10 | > 10 | > 10 | > 10 | > 10 | > 10 | > 10 | > 10 | > 10 |  | > 10 | > 10 | > 10 | > 10 | > 10 | > 10 | > 10 | > 10 | > 10 | > 10
Cc1cc(C)c(O)c(CN2CCN(C(C)C)CCN(C(C)C)CC2)c1 | > 100 | 60.8 | 40.8 | 85.2 | > 100 | 46.5 | 26.2 | 64.4 | 47.3 | > 100 | > 100 | > 100 | 30.8 |  | 83.9 | > 100 | > 100 | 61 | 82.9 | 64
CCN(CC)C1CCC(C2c3cc4c(cc3OC(N3CCOCC3)C2C)OCO4)CC1 (configuration not stated) | > 100 | > 100 | 40.3 | > 100 | > 100 | > 100 | > 69.3 | > 100 | > 68.2 | 96.9 | > 55.5 | > 100 | 57 |  | > 100 | > 100 | > 100 | > 96.7 | > 100 | > 100
COC(=O)[C@H](Cc1c[nH]c2ccccc12)NP(=O)(O)OC[C@H]1O[C@@H](n2cc(C)c(=O)[nH]c2=O)C[C@@H]1N=[N+]=[N-] | > 100 | > 100 | > 100 | > 100 | > 100 | > 100 | > 100 | > 100 | > 100 | > 100 | > 100 | > 100 |  | > 100 | > 100 | > 100 | > 100 | > 100 | > 100 | 
CN(C)CCCNc1ncnc2c1ncn2C1OC(CO)C(O)C1O (configuration not stated) | > 100 | > 100 | > 100 | > 100 | > 100 | > 100 | > 100 | > 100 | > 100 | > 100 | > 100 | > 100 | > 100 | > 100 | > 100 |  | > 100 | > 100 | > 100 | > 100
CC(=O)OCC1OC(n2c3c(cc(C#N)c2=S)CCC3)C(OC(C)=O)C(OC(C)=O)C1OC(C)=O (configuration not stated) | > 100 | > 100 | > 100 | > 100 | > 100 | > 100 | > 100 | > 100 | > 100 | > 100 | > 100 | > 100 | > 100 |  | > 100 | > 100 | > 100 | > 100 | > 100 | > 100
CC1CC/C(=C\c2ccc(N(C)C)cc2)C2=C1C(c1ccc(N(C)C)cc1)NC(=S)N2 (configuration not stated) | > 100 | > 100 |  | > 100 | > 100 | > 100 | > 100 | > 100 | > 100 | > 100 | > 100 | > 100 | > 100 | > 100 | > 100 | > 100 | > 100 | > 100 | > 100 | 
O=C(SC1=NCCN1)c1cccc2ccccc12 | > 100 | > 100 | > 100 | > 100 | > 100 | > 100 | > 100 | > 100 | 43.2 | > 100 | 94.6 | > 100 | > 100 | > 100 | > 100 | 96.8 | > 100 | > 100 | > 100 | 
CC1=NNC(=O)C1C1CC(c2c[nH]c3ccccc23)=NN(C(N)=O)C1=O (configuration not stated) | > 100 | > 100 |  | > 100 | > 100 | 88.3 | > 100 | > 100 | > 100 | > 100 | > 100 | > 100 | > 100 | > 100 | > 100 | > 100 | > 100 | > 100 | > 100 | 
CC1(C)C2CC(O)C1CCC2=O (configuration not stated) | > 100 | > 100 | > 100 | > 100 | > 100 | > 100 | > 100 | > 100 | > 100 | > 100 | > 100 | > 100 | > 100 | > 100 | > 100 | > 100 |  | > 100 | > 100 | 
CC(NC(=O)C(Cc1ccc([N+](=O)[O-])cc1)NC(=O)C(N)CCCCN)C(=O)NC(Cc1ccc([N+](=O)[O-])cc1)C(N)=O (configuration not stated) (H-K[Phe(4-NO2)]A[Phe(4-NO2)]-NH2; configuration not given here) | > 100 | > 100 | > 64.8 | > 100 | > 100 | > 57.4 | > 74.3 | > 71.5 | > 59.4 | > 100 | > 44.7 | > 100 | > 83.9 | > 100 | > 100 | > 100 | > 100 | > 80.8 | > 66.6 | 
COc1ccc(C2=C(N)c3c(Cl)cccc3C2=O)cc1 | > 100 | > 100 | > 100 | > 100 | > 100 | > 100 | > 100 | > 100 | > 100 | > 100 | > 100 | > 100 | > 100 | > 100 | > 100 | > 100 | > 100 | > 100 |  | 
CN(C)CCCNC(=O)CCNC(=O)c1cc(NC(=O)c2cc(NC(=O)c3cc(NC(=O)c4nccn4C)cn3C)cn2C)cn1C | > 100 | > 100 | > 100 | > 100 | > 100 | > 100 | > 100 | > 100 | > 100 | > 100 | > 100 | > 100 | > 100 | > 100 | > 100 | > 100 | > 100 | 97.4 | > 100 | 
COc1ccc2nc3c([N+](=O)[O-])ccc(NCCCN(C)C)c3c(NCCCN(C)C)c2c1 | 2.13 |  | 2.61 |  | 2.86 | 2.54 | > 10 | > 10 | 1.26 |  | 2.53 | > 10 |  | 4.14 | 2.63 | 3.49 | 6.22 | > 10 |  | 1.14
CCN(CC)CCN(C(=Nc1ccccc1)N1CCCCC1)c1ccccc1 | 85.9 | 13.1 | 19.9 | 3.35 | > 100 | 23.9 | 21.7 | 20.6 | 25.2 |  | 8.71 | > 100 | 40 | 24.2 | 29 |  | > 100 | 9.92 | 26.5 | 23.6
O=C1/C(=C/c2ccco2)N=C2Sc3c(nc[nH]c3=O)N12 | > 100 | > 100 |  | > 100 | > 100 | > 100 | > 100 | > 100 | > 100 | > 100 | > 100 | > 100 | > 100 | > 100 | > 100 | > 100 | > 100 | > 100 | > 100 | 
Cc1ccc(-c2n[nH]c(=O)n2NC(=O)c2ccccc2C(=O)O)cc1 | > 100 |  | > 100 | > 100 | > 100 | > 100 | > 100 | > 100 | > 100 |  | > 100 | > 100 | > 100 |  | > 100 | > 100 | > 100 | > 100 | > 100 | > 100
C=CCN1C[C@H](C)N([C@@H](c2ccc(C(=O)N3CCCCC3)cc2)c2cccc(OC)c2)C[C@H]1C | > 100 | 30.6 | 99.5 | > 100 | > 100 | > 100 | 34.9 | > 100 | > 100 | > 100 |  | > 100 | 67.7 | > 100 | > 100 | > 100 |  | 76 | > 100 | 35.4
C[Si](C)(N[Si](C)(C)OCCc1ccccc1)OCCc1ccccc1 | > 100 |  | > 100 | > 100 | > 100 | > 100 | > 100 | > 100 |  | > 100 | > 100 |  |  | > 100 | > 100 | > 100 | > 100 | > 100 | > 100 | 
N#Cc1ccc(CSC2=C(c3ccc(Cl)cc3)S/C(=C3\SC(SCc4ccc(C#N)cc4)=C(c4ccc(Cl)cc4)S3)S2)cc1 | > 100 | > 100 | > 100 | > 100 | > 100 | > 100 | > 100 | > 100 | > 100 | > 100 | > 100 | > 100 | > 100 | > 100 | > 100 |  | > 100 | > 100 |  | > 100
